These results are taken from PMC7881117 (Nature Communications, 2021).

The assay deals with T1, p53 (Homo sapiens, UniProt P04637).
T1 construct: gene TP53
Kind of assay: SPR with immobilized p53; also STD NMR, […]-13C NCO NMR titration, SAXS and AUC with NTD. It counts as binding.

T1 sequence (P04637 whole entry): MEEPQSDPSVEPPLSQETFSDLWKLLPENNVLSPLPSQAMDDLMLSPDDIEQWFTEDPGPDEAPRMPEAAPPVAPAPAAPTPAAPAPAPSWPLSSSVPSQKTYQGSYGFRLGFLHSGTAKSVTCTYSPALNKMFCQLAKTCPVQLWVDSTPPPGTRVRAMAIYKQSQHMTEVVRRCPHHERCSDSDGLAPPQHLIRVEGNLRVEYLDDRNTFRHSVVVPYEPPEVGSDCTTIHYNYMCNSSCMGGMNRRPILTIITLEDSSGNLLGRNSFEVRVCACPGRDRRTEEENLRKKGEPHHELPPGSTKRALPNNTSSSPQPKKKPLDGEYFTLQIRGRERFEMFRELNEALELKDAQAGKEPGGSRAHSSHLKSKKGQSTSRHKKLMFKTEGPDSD

By Kd is commonly meant a measure of binding affinity in units of concentration. A higher Kd goes with lower affinity. Consider `O=C(O[C@@H]1Cc2c(O)cc(O)cc2O[C@@H]1c1cc(O)c(O)c(O)c1)c1cc(O)c(O)c(O)c1` [EGCG, Epigallocatechin gallate], for which the affinity, expressed as Kd, was 1.6 ± 1.4 µM.
